pIC50: −log10 of the molar value.
Target: T1, human mPGES-1 (Homo sapiens, UniProt O14684)
T1 construct: made in house; host or cells: E. coli
T1 sequence (O14684 1-152): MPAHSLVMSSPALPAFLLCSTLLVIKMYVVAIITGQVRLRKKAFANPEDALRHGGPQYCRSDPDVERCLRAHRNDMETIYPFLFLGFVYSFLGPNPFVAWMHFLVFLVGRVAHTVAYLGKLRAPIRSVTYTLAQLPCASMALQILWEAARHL
Assay: mPGES-1 biological test (conversion of PGH2 to PGE2, HPLC analysis)
Assay type: biochemical
Conditions: human mPGES-1 expressed in E. coli, membrane fraction; 25 min preincubation with inhibitor, 60 s with PGH2, room temperature; read-out: concentration at which 50% inhibition of mPGES-1 was observed
Procedure: In the assay human mPGES-1 catalyses the reaction where the substrate PGH2 is converted to PGE2. mPGES-1 is expressed in E. coli and the membrane fraction is dissolved in 20 mM NaPi-buffer pH 8.0 and stored at −80° C. In the assay human mPGES-1 is dissolved in 0.1 M KPi-buffer pH 7.35 with 2.5 mM glutathione. The stop solution consists of H2O/MeCN (7/3), containing FeCl2 (25 mM) and HCl (0.15 M). The assay is performed at room temperature in 96-well plates. Analysis of the amount of PGE2 is performed with reversed phase HPLC (Waters 2795 equipped with a 3.9×150 mm C18 column). The mobile phase consists of H2O/MeCN (7/3), containing TFA (0.056%), and absorbance is measured at 195-nm with a Waters 2487 UV-detector.
The following is added chronologically to each well: • 1. 100 μL human mPGES-1 in KPi-buffer with glutathione. Total protein concentration: 0.02 mg/mL. • 2. 1 μL inhibitor in DMSO. Incubation of the plate at room temperature for 25 minutes. • 3. 4 μL of a 0.25 mM PGH2, solution. Incubation of the plate at room temperature for 60 seconds. • 4. 100 μL stop solution. • 180 μL per sample is analyzed with HPLC.

In order of falling pIC50:
1. CC(C)Oc1ccc(-n2c(C(=O)O)cc3cc(-c4ccc(C(C)(C)C)cc4)ccc32)cc1 [Example 1, 5-(4-tert-Butylphenyl)-1-(4-isopropoxphenyl)-indole-2-carboxylic acid]  7.21
2. CC(C)(C)c1ccc(-c2ccc3c(c2)cc(C(=O)O)n3-c2ccc(C3CCCCC3)cc2)cc1 [Example 64, 5-(4-tert-Butylphenyl)-1-(4-cyclohexylphenyl)-1H-indole-2-carboxylic acid]  6.77
3. CC(C)Oc1ccc(-c2ccc3c(c2)c(Cl)c(C(=O)O)n3-c2ccc(OC(C)C)nc2)cc1 [Example 33, 3-Chloro-5-(4-isopropoxyphenyl)-1-(6-isopropoxypyrid-3-yl)indole-2-carboxylic acid]  6.41
4. CC(C)Oc1ccc(-n2c(C(=O)O)cc3cc(-c4ccc(OC(C)C)nc4)ccc32)cc1 [Example 9]  6.21
5. O=C(O)c1c(Cl)c2cc(-c3ccc(C(F)(F)F)cn3)ccc2n1-c1ccc(OC2CCCC2)nc1 [Example 36, 3-Chloro-1-(6-cyclopentoxypyrid-3-yl)-5-(5-trifluoromethylpyrid-2-yl)-1H-indole-2-carboxylic acid]  5.96
